Measurements as given in US10781204B2, “TYK2 inhibitors and uses thereof” (Nimbus Lakshmi, Inc., priority 2015, dated 2020).
pEC50, pKi: −log10 of the molar value.

Columns and labels:
TYK2 = TYK2 (Homo sapiens (Human), UniProt P29597); assay: Tyk2 radioactive kinase assay; type: biochemical; details: ATP 10 μM
Summary of the method: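 Recombinant human TYK2 (Invitrogen) was mixed with 20 μM peptide substrate in a buffer of 20 mM Hepes pH 7.5, 10 mM MgCl2, 1 mM EGTA, 0.02% Brij35, 0.02 mg/mL BSA, 0.1 mM […], 2 mM DTT and 1% DMSO, and compounds in DMSO were added. Adding ^33P-ATP (10 μM ATP) started the reaction, which ran 120 min at room temperature. Mixtures were then spotted onto P81 ion-exchange paper, washed thoroughly in 0.75% phosphoric acid, and counted for radioactivity.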

JAK2 = JAK2 (Homo sapiens (Human), UniProt O60674); assay: JAK2 radioactive kinase assay; type: biochemical; details: ATP 10 μM
Chain of JAK2 (O60674 whole entry): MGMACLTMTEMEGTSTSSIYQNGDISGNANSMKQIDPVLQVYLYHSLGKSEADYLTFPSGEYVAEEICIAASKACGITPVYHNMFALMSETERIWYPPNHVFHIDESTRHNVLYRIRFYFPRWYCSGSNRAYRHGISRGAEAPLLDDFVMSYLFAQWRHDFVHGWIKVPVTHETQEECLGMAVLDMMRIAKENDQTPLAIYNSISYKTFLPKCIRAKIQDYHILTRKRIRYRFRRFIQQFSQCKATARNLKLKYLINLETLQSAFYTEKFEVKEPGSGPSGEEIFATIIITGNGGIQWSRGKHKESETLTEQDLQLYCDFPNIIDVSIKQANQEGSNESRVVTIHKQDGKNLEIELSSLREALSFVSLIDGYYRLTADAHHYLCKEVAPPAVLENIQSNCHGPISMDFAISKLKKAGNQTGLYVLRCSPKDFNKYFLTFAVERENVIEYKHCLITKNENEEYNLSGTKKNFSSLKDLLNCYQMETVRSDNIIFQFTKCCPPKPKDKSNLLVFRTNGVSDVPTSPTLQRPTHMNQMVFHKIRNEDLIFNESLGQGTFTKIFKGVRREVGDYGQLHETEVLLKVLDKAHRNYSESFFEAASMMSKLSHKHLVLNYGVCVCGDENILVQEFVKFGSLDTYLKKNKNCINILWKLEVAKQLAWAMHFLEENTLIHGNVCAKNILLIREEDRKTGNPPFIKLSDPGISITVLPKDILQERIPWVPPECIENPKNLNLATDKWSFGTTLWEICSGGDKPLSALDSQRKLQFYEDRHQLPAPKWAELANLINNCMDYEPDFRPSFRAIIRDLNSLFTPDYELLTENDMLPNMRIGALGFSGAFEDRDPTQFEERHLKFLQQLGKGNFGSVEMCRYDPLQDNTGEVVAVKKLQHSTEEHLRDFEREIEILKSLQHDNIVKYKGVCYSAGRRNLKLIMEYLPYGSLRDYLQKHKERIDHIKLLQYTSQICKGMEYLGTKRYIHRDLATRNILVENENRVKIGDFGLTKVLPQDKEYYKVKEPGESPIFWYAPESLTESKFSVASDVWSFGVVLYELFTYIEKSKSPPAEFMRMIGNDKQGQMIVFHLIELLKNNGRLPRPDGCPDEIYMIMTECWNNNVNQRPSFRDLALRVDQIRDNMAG
Summary of the method: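 Radiometric assay in Hepes pH 7.5, MgCl2, EGTA, Brij35, BSA, DTT, 1% DMSO, with 10 μM [33P]ATP, 120 min at room temp; P81 paper capture and counting. […]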

[1] = test system: Tyk2-pSTAT4 (IL-12 induced pSTAT4); assay: IL-12 induced pSTAT4 in human PBMC; type: cell-based; details: Homo sapiens, PBMC, 0.5 h, 1.7 ng/mL IL-12, 30 minutes
Summary of the method: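 pSTAT4 and total STAT4 quantified by MSD in cell lysates after 30 minutes of 1.7 ng/mL IL-12 stimulation. Beforehand, compound (0.1% DMSO final) sat 1 hr at 37 C on 200,000 thawed buffy-coat PBMC per well in serum-containing medium.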

[2] = test system: JAK2-pSTAT5 (GM-CSF induced pSTAT5); assay: GM-CSF induced pSTAT5 in human PBMC; type: cell-based; details: Homo sapiens, PBMC, 20 min, 5 ng/mL GM-CSF
Summary of the method: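 Thawed human PBMC, 200,000 per well in serum-containing medium, were preincubated 1 hr at 37 C with compound in 0.1% DMSO. GM-CSF at 5 ng/mL final was added for 20 minutes, then pSTAT5 and total STAT5 in lysates were measured by MSD immunoassay.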

Chain of TYK2 (P29597 whole entry): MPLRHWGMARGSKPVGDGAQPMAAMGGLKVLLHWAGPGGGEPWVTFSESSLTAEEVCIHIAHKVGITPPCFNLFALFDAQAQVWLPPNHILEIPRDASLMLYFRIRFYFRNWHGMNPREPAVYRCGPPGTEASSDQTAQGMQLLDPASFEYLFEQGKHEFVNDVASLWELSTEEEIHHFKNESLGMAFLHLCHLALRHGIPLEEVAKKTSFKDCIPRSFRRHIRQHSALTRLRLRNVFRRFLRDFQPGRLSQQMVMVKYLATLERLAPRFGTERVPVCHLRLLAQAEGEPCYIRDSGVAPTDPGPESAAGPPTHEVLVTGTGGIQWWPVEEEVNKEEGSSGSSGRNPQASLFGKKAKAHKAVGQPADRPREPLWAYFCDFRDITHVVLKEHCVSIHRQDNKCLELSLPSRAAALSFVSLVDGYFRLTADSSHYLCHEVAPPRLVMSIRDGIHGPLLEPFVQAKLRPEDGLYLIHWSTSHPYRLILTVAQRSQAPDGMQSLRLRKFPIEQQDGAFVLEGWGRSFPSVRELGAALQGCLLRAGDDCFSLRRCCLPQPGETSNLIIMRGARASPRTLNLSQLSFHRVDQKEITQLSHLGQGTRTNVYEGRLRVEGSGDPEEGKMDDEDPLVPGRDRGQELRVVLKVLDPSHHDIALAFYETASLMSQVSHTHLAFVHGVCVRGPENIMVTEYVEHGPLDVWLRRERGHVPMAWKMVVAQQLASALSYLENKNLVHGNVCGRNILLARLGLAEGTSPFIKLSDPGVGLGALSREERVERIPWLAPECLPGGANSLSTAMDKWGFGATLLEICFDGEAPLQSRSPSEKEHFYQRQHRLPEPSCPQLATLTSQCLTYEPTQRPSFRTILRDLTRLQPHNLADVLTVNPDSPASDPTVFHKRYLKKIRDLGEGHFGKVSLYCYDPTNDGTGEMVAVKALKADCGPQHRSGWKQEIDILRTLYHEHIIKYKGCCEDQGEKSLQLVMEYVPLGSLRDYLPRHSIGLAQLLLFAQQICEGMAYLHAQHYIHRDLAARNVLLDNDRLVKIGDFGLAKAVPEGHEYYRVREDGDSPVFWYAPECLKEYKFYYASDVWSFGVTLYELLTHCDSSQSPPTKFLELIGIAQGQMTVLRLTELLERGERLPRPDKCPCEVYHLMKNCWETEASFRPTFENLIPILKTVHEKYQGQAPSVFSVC

SMILES	pKi (TYK2)	pKi (JAK2)	pEC50 [1]	pEC50 [2]
N#Cc1cccc(F)c1-c1cc(-n2ccc(N3CCOC[C@@H]3CO)n2)c2c(n1)CNC2=O [I-163, (S)-3-fluoro-2-(4-(3-(3-(hydroxymethyl)morpholino)-1H-pyrazol-1-yl)-5-oxo-6,7-dihydro-5H-pyrrolo[3,4-b]pyridin-2-yl)benzonitrile]	8.00 to 10.00	8.00 to 10.00	5.70 to 7.00	5.70 to 7.00
N#Cc1cccc(F)c1-c1cc(-n2ccc(N3CCC[C@H](C(=O)N4CCCC4)C3)n2)c2c(n1)CNC2=O [I-168, (S)-3-fluoro-2-(5-oxo-4-(3-(3-(pyrrolidine-1-carbonyl)piperidin-1-yl)-1H-pyrazol-1-yl)-6,7-dihydro-5H-pyrrolo[3,4-b]pyridin-2-yl)benzonitrile]	8.00 to 10.00	8.00 to 10.00	5.70 to 7.00	5.70 to 7.00
[2H]C1([2H])CC(O)(C([2H])([2H])[2H])C([2H])([2H])N1c1ccn(-c2cc(-c3c(F)cccc3C#N)nc3c2C(=O)NC3)n1 (stereo not drawn) [I-170, 3-fluoro-2-(4-(3-(3-hydroxy-3-(methyl-d3)pyrrolidin-1-yl-2,2,5,5-d4)-1H-pyrazol-1-yl)-5-oxo-6,7-dihydro-5H-pyrrolo[3,4-b]pyridin-2-yl)benzonitrile]	8.00 to 10.00	8.00 to 10.00	7.00 to 7.52	< 5.70
CCNC(=O)[C@H]1CCCN(c2ccn(-c3cc(-c4c(F)cccc4C#N)nc4c3C(=O)NC4)n2)C1 [I-171, (S)-1-(1-(2-(2-cyano-6-fluorophenyl)-5-oxo-6,7-dihydro-5H-pyrrolo[3,4-b]pyridin-4-yl)-1H-pyrazol-3-yl)-N-ethylpiperidine-3-carboxamide]	8.00 to 10.00	7.00 to 8.00	5.70 to 7.00	< 5.70
CO[C@H]1CN(c2ccn(-c3cc(-c4c(F)cccc4C#N)nc4c3C(=O)NC4)n2)CC[C@H]1OC [I-176, 2-(4-(3-((3S,4R)-3,4-dimethoxypiperidin-1-yl)-1H-pyrazol-1-yl)-5-oxo-6,7-dihydro-5H-pyrrolo[3,4-b]pyridin-2-yl)-3-fluorobenzonitrile]	8.00 to 10.00	7.00 to 8.00	5.70 to 7.00	5.70 to 7.00
CC(=O)Nc1cnn(-c2cc(-c3c(F)cccc3C#N)nc3c2C(=O)NC3)c1 [I-177, N-(1-(2-(2-cyano-6-fluorophenyl)-5-oxo-6,7-dihydro-5H-pyrrolo[3,4-b]pyridin-4-yl)-1H-pyrazol-4-yl)acetamide]	≤ 6.00	≤ 6.00	< 5.70	5.70 to 7.00
CO[C@H]1CN(c2ccn(-c3cc(-c4c(F)cccc4C#N)nc4c3C(=O)NC4)n2)CC[C@H]1O [I-181, 3-fluoro-2-(4-(3-((3S,4R)-4-hydroxy-3-methoxypiperidin-1-yl)-1H-pyrazol-1-yl)-5-oxo-6,7-dihydro-5H-pyrrolo[3,4-b]pyridin-2-yl)benzonitrile]	8.00 to 10.00	7.00 to 8.00	5.70 to 7.00	5.70 to 7.00
[2H]C1([2H])C[C@@](O)(C([2H])([2H])[2H])C([2H])([2H])N1c1ccn(-c2cc(-c3c(F)cccc3C#N)nc3c2C(=O)NC3)n1 [I-183, (S)-3-fluoro-2-(4-(3-(3-hydroxy-3-(methyl-d3)pyrrolidin-1-yl-2,2,5,5-d4)-1H-pyrazol-1-yl)-5-oxo-6,7-dihydro-5H-pyrrolo[3,4-b]pyridin-2-yl)benzonitrile]	8.00 to 10.00	8.00 to 10.00	7.00 to 7.52	5.70 to 7.00
[2H]C1([2H])C[C@](O)(C([2H])([2H])[2H])C([2H])([2H])N1c1ccn(-c2cc(-c3c(F)cccc3C#N)nc3c2C(=O)NC3)n1 [I-184, (R)-3-fluoro-2-(4-(3-(3-hydroxy-3-(methyl-d3)pyrrolidin-1-yl-2,2,5,5-d4)-1H-pyrazol-1-yl)-5-oxo-6,7-dihydro-5H-pyrrolo[3,4-b]pyridin-2-yl)benzonitrile]	8.00 to 10.00	8.00 to 10.00	7.00 to 7.52	5.70 to 7.00
N#Cc1cccc(F)c1-c1cc(-n2cc(F)c(N3CCC(O)C3)n2)c2c(n1)CNC2=O (stereo not drawn) [I-185, 3-fluoro-2-(4-(4-fluoro-3-(3-hydroxypyrrolidin-1-yl)-1H-pyrazol-1-yl)-5-oxo-6,7-dihydro-5H-pyrrolo[3,4-b]pyridin-2-yl)benzonitrile]	8.00 to 10.00	7.00 to 8.00	5.70 to 7.00	5.70 to 7.00
[2H]C1([2H])N(c2ccn(-c3cc(-c4c(F)cccc4C#N)nc4c3C(=O)NC4)n2)C([2H])([2H])C(C)(O)C([2H])([2H])C1([2H])[2H] (stereo not drawn) [I-186, 3-fluoro-2-(4-(3-(3-hydroxy-3-methylpiperidin-1-yl-2,2,4,4,5,5,6,6-d8)-1H-pyrazol-1-yl)-5-oxo-6,7-dihydro-5H-pyrrolo[3,4-b]pyridin-2-yl)benzonitrile]	8.00 to 10.00	7.00 to 8.00	5.70 to 7.00	< 5.70
N#Cc1cccc(F)c1-c1cc(-n2ccc(N3C[C@H]4CC[C@@H](C3)O4)n2)c2c(n1)CNC2=O [I-188, 2-(4-(3-((1R,5S)-8-oxa-3-azabicyclo[3.2.1]octan-3-yl)-1H-pyrazol-1-yl)-5-oxo-6,7-dihydro-5H-pyrrolo[3,4-b]pyridin-2-yl)-3-fluorobenzonitrile]	10.00 to 11.05	8.00 to 10.00	5.70 to 7.00	5.70 to 7.00
N#Cc1cccc(F)c1-c1cc(-n2cc(F)c(N3CC[C@@H](O)C3)n2)c2c(n1)CNC2=O [I-189, (R)-3-fluoro-2-(4-(4-fluoro-3-(3-hydroxypyrrolidin-1-yl)-1H-pyrazol-1-yl)-5-oxo-6,7-dihydro-5H-pyrrolo[3,4-b]pyridin-2-yl)benzonitrile]	8.00 to 10.00	7.00 to 8.00	5.70 to 7.00	< 5.70
N#Cc1cccc(F)c1-c1cc(-n2cc(F)c(N3CC[C@H](O)C3)n2)c2c(n1)CNC2=O [I-190, (S)-3-fluoro-2-(4-(4-fluoro-3-(3-hydroxypyrrolidin-1-yl)-1H-pyrazol-1-yl)-5-oxo-6,7-dihydro-5H-pyrrolo[3,4-b]pyridin-2-yl)benzonitrile]	8.00 to 10.00	7.00 to 8.00	5.70 to 7.00	5.70 to 7.00

The next lines start with the values.

pKi (TYK2)	pKi (JAK2)	pEC50 [1]	pEC50 [2]	SMILES
10.00 to 11.05	8.00 to 10.00	5.70 to 7.00	5.70 to 7.00	C[C@]1(O)CN(c2ccn(-c3cc(-c4c(F)cccc4C#N)nc4c3C(=O)NC4)n2)CC[C@H]1O [I-162, 2-(4-(3-((3S,4R)-3,4-dihydroxy-3-methylpiperidin-1-yl)-1H-pyrazol-1-yl)-5-oxo-6,7-dihydro-5H-pyrrolo[3,4-b]pyridin-2-yl)-3-fluorobenzonitrile]
8.00 to 10.00	8.00 to 10.00	5.70 to 7.00	5.70 to 7.00	N#Cc1cccc(F)c1-c1cc(-n2ccc(N3CC[C@]4(CCNC4=O)C3)n2)c2c(n1)CNC2=O [I-165, (R)-3-fluoro-2-(5-oxo-4-(3-(6-oxo-2,7-diazaspiro[4.4]nonan-2-yl)-1H-pyrazol-1-yl)-6,7-dihydro-5H-pyrrolo[3,4-b]pyridin-2-yl)benzonitrile]
10.00 to 11.05	8.00 to 10.00	5.70 to 7.00	5.70 to 7.00	N#Cc1cccc(F)c1-c1cc(-n2ccc(N3CC[C@@]4(CCNC4=O)C3)n2)c2c(n1)CNC2=O [I-166, (S)-3-fluoro-2-(5-oxo-4-(3-(6-oxo-2,7-diazaspiro[4.4]nonan-2-yl)-1H-pyrazol-1-yl)-6,7-dihydro-5H-pyrrolo[3,4-b]pyridin-2-yl)benzonitrile]
8.00 to 10.00	7.00 to 8.00	5.70 to 7.00	< 5.70	CCNC(=O)[C@@H]1CCCN(c2ccn(-c3cc(-c4c(F)cccc4C#N)nc4c3C(=O)NC4)n2)C1 [I-172, (R)-1-(1-(2-(2-cyano-6-fluorophenyl)-5-oxo-6,7-dihydro-5H-pyrrolo[3,4-b]pyridin-4-yl)-1H-pyrazol-3-yl)-N-ethylpiperidine-3-carboxamide]
8.00 to 10.00	7.00 to 8.00	5.70 to 7.00	< 5.70	N#Cc1cccc(F)c1-c1cc(-n2ccc(N3CCC[C@H](O)[C@H](O)C3)n2)c2c(n1)CNC2=O [I-178, 2-(4-(3-((3R,4S)-3,4-dihydroxyazepan-1-yl)-1H-pyrazol-1-yl)-5-oxo-6,7-dihydro-5H-pyrrolo[3,4-b]pyridin-2-yl)-3-fluorobenzonitrile]
8.00 to 10.00	7.00 to 8.00	7.00 to 7.52	< 5.70	N#Cc1cccc(F)c1-c1cc(-n2ccc(N3CCC[C@@H](O)[C@@H](O)C3)n2)c2c(n1)CNC2=O [I-179, 2-(4-(3-((3S,4R)-3,4-dihydroxyazepan-1-yl)-1H-pyrazol-1-yl)-5-oxo-6,7-dihydro-5H-pyrrolo[3,4-b]pyridin-2-yl)-3-fluorobenzonitrile]
8.00 to 10.00	8.00 to 10.00	5.70 to 7.00	5.70 to 7.00	N#Cc1cccc(F)c1-c1cc(-n2ccc(N3CCC(O)(C(=O)N4CCCC4)C3)n2)c2c(n1)CNC2=O (stereo not drawn) [I-191, 3-fluoro-2-(4-(3-(3-hydroxy-3-(pyrrolidine-1-carbonyl)-pyrrolidin-1-yl)-1H-pyrazol-1-yl)-5-oxo-6,7-dihydro-5H-pyrrolo[3,4-b]pyridin-2-yl)benzonitrile]
